Source: PMC8179433, “Rational designing of glyco-nanovehicles to target cellular heterogeneity” (Chemical Science, 2021)
Read-outs that look alike come from different tables or passages of the source.

How the values were obtained:
[1] = biological target: T1, HB-EGF (Homo sapiens, UniProt Q99075); assay: SPR; also competition ELISA against immobilized heparin (IC50 =[…]); assay type: binding
T1 construct: gene HBEGF

[2] = biological target: T1, HB-EGF; assay: as above; assay type: binding; remark: listed apart in the source

T1 sequence (Q99075 63-148): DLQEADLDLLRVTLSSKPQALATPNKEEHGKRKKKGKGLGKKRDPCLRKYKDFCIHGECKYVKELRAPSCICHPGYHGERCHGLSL

Kd [1] [µM] | Kd [2] [µM] | SMILES
11.1 |  | CC(=O)N[C@H]1[C@@H](O[C@H]2[C@H](O)[C@@H](O)[C@H](OCCCN)O[C@H]2C(=O)O)O[C@H](COS(=O)(=O)O)[C@@H](O[C@@H]2O[C@@H](C(=O)O)[C@@H](O[C@H]3O[C@H](COS(=O)(=O)O)[C@@H](O)[C@H](O)[C@H]3NC(C)=O)[C@H](O)[C@H]2O)[C@@H]1O [compound 7, 6-O-S HS tetrasaccharide (7)]
 | 11.1 | CC(=O)N[C@H]1[C@@H](O[C@H]2[C@H](O)[C@@H](O)[C@H](OCCCN)O[C@H]2C(=O)O)O[C@H](COP(=O)(O)O)[C@@H](O[C@@H]2O[C@@H](C(=O)O)[C@@H](O[C@H]3O[C@H](COP(=O)(O)O)[C@@H](O)[C@H](O)[C@H]3NC(C)=O)[C@H](O)[C@H]2O)[C@@H]1O [compound 8, 6-O-phosphated HS tetrasaccharide (8)]
